Reference: US6074845A (priority 1999, dated 2000)
Ends that are not written are not given here.

Tests used:
[1] = test system: insulin-stimulated glycogen synthesis; settings: activation of sensory nerves; cited from earlier work
[2] = test system: ATP-sensitive potassium channel; settings: rabbit mesenteric resistance arteries and rat basilar artery; cited from earlier work
[3] = biological target: T1, BECRLR (bovine calcitonin receptor-like receptor) (Bos taurus, UniProt A6QP74); assay: Inhibition of ADM-activated adenylyl cyclase activity (antagonism) in BECRLR-293 membranes; format: biochemical; settings: BECRLR #8
T1 construct: amplify the open reading frame of the novel bovine CRLR cDNA; expressed in transfected cells; also transient transfection
T1 sequence (A6QP74 23-462): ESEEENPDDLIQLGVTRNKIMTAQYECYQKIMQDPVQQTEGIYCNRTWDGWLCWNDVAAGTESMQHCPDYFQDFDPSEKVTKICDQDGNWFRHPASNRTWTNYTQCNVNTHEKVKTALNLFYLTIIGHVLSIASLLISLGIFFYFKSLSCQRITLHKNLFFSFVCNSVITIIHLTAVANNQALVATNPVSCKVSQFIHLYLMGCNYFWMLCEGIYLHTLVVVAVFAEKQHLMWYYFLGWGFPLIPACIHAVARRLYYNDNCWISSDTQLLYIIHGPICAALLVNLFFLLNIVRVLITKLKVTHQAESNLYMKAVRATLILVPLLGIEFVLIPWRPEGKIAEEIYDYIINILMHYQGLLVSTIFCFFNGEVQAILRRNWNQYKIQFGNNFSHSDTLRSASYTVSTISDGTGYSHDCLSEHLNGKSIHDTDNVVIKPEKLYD
T1 sequence (O60895 43-175 partner): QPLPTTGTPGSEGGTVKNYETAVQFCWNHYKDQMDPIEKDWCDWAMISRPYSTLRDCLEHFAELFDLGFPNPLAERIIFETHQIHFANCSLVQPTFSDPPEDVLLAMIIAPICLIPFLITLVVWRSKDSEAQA
Procedure: (§1) Cells from BECRLR-293 were scraped into ice-cold PBS and centrifuged for 10 min at 1000× g at 4° C. The pellet was resuspended in 10 mM Tris-HCl, pH 7.4, 10 mM Na-EDTA and homogenized using a Dounce ground glass homogenizer. The homogenate was centrifuged for 20 min at 12,000× g at 4° C. and the resultant membrane pellet was resuspended in 50 mM Tris-HCl, pH 7.4, 10 mM MgCl2 and recentrifuged. The final pellet was resuspended in 50 mM Tris-HCl, pH 7.4, 10 mM MgCl2 and assayed immediately.
(§2) [^125 I] […] The specificity of [^125 I] rADM binding to BE-CRLR membranes was investigated by analyzing the displacement of this radioligand binding by ADM and related peptides.

[4] = biological target: T1, BECRLR (bovine calcitonin receptor-like receptor); assay: Competition binding, displacement of [125I] rADM from BECRLR membranes; settings: BE-CRLR membranes; for IC50: [125I] rADM
Procedure: as §1
(§3) Saturation binding experiments were carried out using membranes prepared from BECRLR-293 cells pretreated in the absence or presence of ADM. The incubation mixture contained various concentrations of [^125 I] ADM (5 to 120 pM) and 40-60 μg of membrane protein in a final volume of 500 ul. Nonspecific binding was determined in the presence of 1 μM r ADM. After incubating for 30 min at 25° C., the reaction mixture was rapidly diluted with cold 0.9% NaCl and bound and free ligands were separated by filtration on glass fiber filters.
as §2

[5] = biological target: T1, BECRLR (bovine calcitonin receptor-like receptor); assay: Adenylyl cyclase activity (activation) in BECRLR-expressing HEK293 cells/membranes; format: biochemical; set-up: adenylyl cyclase activity stimulation over basal: dose or concentration left out as unconfirmed; settings: for additive effect between CGRP and ADM on adenylyl cyclase: CGRP combined with ADM, BECRLR #8; for adenylyl cyclase activity stimulation over basal: HEK293 cells transiently transfected; for EC50 / activation of adenylyl cyclase activity over basal: stable clone BECRLR #8; for activation of adenylyl cyclase activity over basal: concentration-dependent
From the text: A bovine endothelial cell cDNA library was constructed using the k-Zap cDNA synthesis kit (Stratagene, La Jolla, Calif.) following the standard protocol. The human CGRP receptor c-DNA-coding sequence was used as a probe for the isolation of CRLR clones from an endothelial cell library. The probe was radiolabled with [α^32 P] ATP by the random priming method and used to screen approximately 1×10^6 plaque-forming units of the endothelial CRLR cDNA library. Nylon filters (Hybond ) containing plaque lifts were hybridized at 42° in 5× SSC (SSC is 150 mM NaCl and 15 mM sodium citrate), 5× Denhardt's solution, 0.1% SDS and 20% formamide followed by autography. Hybridizing clones (8) were plaque purified, and the pBluescript-containing insert was rescued from the purified×phage by in vivo excision using the Exassist/Solar system (Stratagene) and was sequenced in both strands by the dideoxynucleotide chain termination reaction. Two oligonucleotide primers were designed to amplify the open reading frame of the novel bovine CRLR cDNA. PCR amplification was carried out. A recombinant of the novel bovine CRLR was produced by transfection in HEK-293 cells. Transfection was achieved by LipofectAMINE procedure (Life Technologies, Gaithersburg, Md.). Stable cell lines expressing this receptor were selected with G418 and screened for CGRP and ADM-dependent activation of adenylyl cyclase.
as §1
(§4) Membrane-bound adenylyl cyclase activity was determined. Membranes [40-60 ug protein] were incubated in triplicate tubes in buffer containing 50 mM Tris-HCl, pH 7.4, 10 mM MgCl2, 1.2 mM ATP, 1.0 μCi [α^32P]ATP, 0.1 mM cAMP, 2.8 mM phosphoenolpyruvate and 5.2 μg/ml myokinase in a final volume of 100 μl for 20 min at 30° C. The reactions were stopped with 1 ml of a solution containing 0.28 mM cAMP, 0.33 mM ATP and 22,000 dpm of [^3 H]cAMP. [^32 P]cAMP was separated using sequential chromatography as the rate of conversion of [(α^32 P]ATP to [^32 P]cAMP on Dowex and alumina columns (33). Adenylyl cyclase activities were determined in the absence (basal) or presence of various concentrations of rat ADM or hαCGRP (1 pM to 1 μM). The effect of ADM (22-52), ADM (26-52) and hαCGRP(8-37), on ADM-mediatedactivation of adenylyl cyclase was also determined.
(§5) HEK293 cells transiently transfected with this clone responded to CGRP and ADM […] by stimulating adenylyl cyclase activity (60-80% over basal). This clone has been stably expressed in HEK293 cells using the LipofectAMINE procedure and analyzed for CGRP and ADM-mediated adenylyl cyclase activity. One of the positive clones (BECRLR #8) was fully characterized. […] To investigate further the functional results described in this study, a binding study using [^125 I]rADM and [^125 I]CGRP was performed to identify the presence of binding sites for both peptides in BE-CRLR (#8) cell membranes. [^125 I] CGRP binding was very little and the affinity or number of binding sites was difficult to determine. […] The specificity of [^125 I] rADM binding to BE-CRLR membranes was investigated by analyzing the displacement of this radioligand binding by ADM and related peptides. Human and rat ADM displaced [^125 I] rADM binding with high affinity (IC50 values 2-4 nM).

[6] = test system: vector transfected HEK293 cell membranes; assay: Adenylyl cyclase activity in vector transfected HEK293 cell membranes (control); format: biochemical, human
Procedure: as §4
HEK293 cells transiently transfected with this clone responded to CGRP and ADM […] by stimulating adenylyl cyclase activity (60-80% over basal). This clone has been stably expressed in HEK293 cells using the LipofectAMINE procedure and analyzed for CGRP and ADM-mediated adenylyl cyclase activity. One of the positive clones (BECRLR #8) was fully characterized. […]

[7] = infusion into humans and a variety of other species; cited from earlier work
[8] = test system: insulin's effects on glucose metabolism; settings: cited from earlier work
[9] = test system: CRLR coexpressed with RAMP 1; settings: CRLR with RAMP 1; cited from earlier work
[10] = biological target: T1, BECRLR (bovine calcitonin receptor-like receptor); assay: Saturation / specific radioligand binding to BECRLR-293 membranes
Procedure: as §1
as §3, with “filters. In competition binding studies, the membranes were incubated with increasing concentrations of r ADM or CGRP (1 pM-1 uM) and 150 pM of [^125 I] r ADM for 30 min. at 25° C.” for “filters.”
as §5, with “Human and rat ADM displaced [^125 I] rADM binding with high affinity (IC50 values 2-4 nM).” left out

rat tissues = settings: [125I] rat ADM; cited from earlier work
[11] = injected intravenously into rats; cited from earlier work
[12] = test system: vascular SMC, and bovine EC; settings: cited from earlier work
[13] = test system: rat vascular SMC and cardiomyocytes; settings: cited from earlier work
NO-cGMP system = settings: kidney, vascular EC, rabbit ventricular myocytes; cited from earlier work
[14] = test system: insulin secretion and blood glucose metabolism; settings: cited from earlier work
[15] = test system: CRLR co-expressed with RAMP2; settings: cited from earlier work

COc1cc(CNC(=O)CCCC/C=C/C(C)C)ccc1O [capsaicin]
insulin-stimulated glycogen synthesis [1]: inhibits insulin-stimulated glycogen synthesis

COc1ccc(Cl)cc1C(=O)NCCc1ccc(S(=O)(=O)NC(=O)NC2CCCCC2)cc1 [glibenclamide]
inhibition of CGRP actions [2]: CGRP actions are inhibited by glibenclamide

C=C(C)[C@]12C[C@@H](C)[C@@]34O[C@](Cc5ccccc5)(O[C@@H]1[C@@H]3C=C(COC(=O)Cc1ccc(O)c(OC)c1)C[C@]1(O)C(=O)C(C)=C[C@@H]41)O2 [resiniferatoxin]
insulin-stimulated glycogen synthesis [1]: inhibits insulin-stimulated glycogen synthesis

ADM(22-52): ADM receptor antagonist, fragment 22-52 of adrenomedullin
IC50 [3]: 110 nM
displacement potency relative to ADM (fold less potent than ADM) ([4]; [125I] rADM displacement): approximately 15 fold

ADM(26-52): ADM receptor antagonist, fragment 26-52 of adrenomedullin (LAHQIYQFTDKDKDNVAPRSKISPQGY; ends and bridges not checked; UniProt P35318 120-146, looked up, fragment)
IC50 [3]: > 10000 nM

Calcitonin gene-related peptide [CGRP]
additive effect between CGRP and ADM on adenylyl cyclase [5]: no additive effect
adenylyl cyclase activity stimulation over basal [5]: 60-80 % over basal
EC50 [5]: 2.8 nM
activation of adenylyl cyclase activity over basal [5]: ~ 300 % over basal
activation of adenylyl cyclase in vector transfected membranes [6]: did not respond
displacement of [125I] rADM binding, potency in words ([4]; [125I] rADM displacement): less potent
vasodilation, blood flow, blood pressure, heart rate [7]: vasodilation, increased regional blood flow, hypotension and tachycardia
glucose infusion rate needed to maintain plasma euglycemia ([8]; glucose clamp in rats, constant insulin infusion rate): rapid and sustained reduction in the glucose infusion rate
insulin inhibition of hepatic glucose production ([8]; rat, in vivo): effective in blocking insulin inhibition of hepatic glucose production
response of expressed receptor [9]: responds to CGRP

Human adrenomedullin [Human ADM]
IC50 [4]: 2 to 4 nM

[^125 I]rADM: radioiodinated rat adrenomedullin, radioligand (YRQSMNQGSRSTGCRFGTCTMQKLAHQIYQFTDKDKDGMAPRNKISPQGY; ends and bridges not checked; also: radioiodinated (125I), position not given here; UniProt P43145 94-143, looked up)
Kd ([10]; Scatchard transformation, single class of high affinity binding site, read-out: dissociation constant (Kd)): 0.25 nM
specific binding as percent of total binding ([10]; [125I]rADM, BE-CRLR (#8) cell membranes): 80-90 % of the total binding
density of ADM binding sites among rat tissues (rat tissues): lung had the highest density of ADM binding sites

adrenomedullin (YRQSMNQGSRSTGCRFGTCTMQKLAHQIYQFTDKDKDGMAPRNKISPQGY; ends and bridges not checked; cysteine pairing not given here; UniProt P43145 94-143, looked up) [ADM, vasodilating peptide]
additive effect between CGRP and ADM on adenylyl cyclase [5]: no additive effect
adenylyl cyclase activity stimulation over basal [5]: 60-80 % over basal
EC50 [5]: 4.3 nM
activation of adenylyl cyclase activity over basal [5]: ~ 300 % over basal
activation of adenylyl cyclase in vector transfected membranes [6]: did not respond
affinity of BECRLR, overall conclusion ([10]; based on radioligand binding and functional assays): higher affinity to ADM
hypotension [11]: strong, long-lasting hypotension
intracellular Ca++ ([12]; through the activation of phospholipase C): induces a rise in intracellular Ca^++
accumulation of intracellular cAMP ([12]; vascular SMC, and bovine EC): stimulates the accumulation of intracellular cAMP
c-fos gene expression and AP-I DNA binding activity [13]: induces rapid and transient c-fos gene expression and AP-I DNA binding activity
NO-cGMP system (NO-cGMP system): activated the NO-cGMP system
insulin secretion and blood glucose metabolism [14]: down-regulate insulin secretion and blood glucose metabolism
response of expressed receptor [15]: responds to ADM

rat ADM: rat adrenomedullin (YRQSMNQGSRSTGCRFGTCTMQKLAHQIYQFTDKDKDGMAPRNKISPQGY; ends and bridges not checked; cysteine pairing not given here; UniProt P43145 94-143, looked up)
IC50 [4]: 2 to 4 nM
